Measured values taken from patent US11986532B2 (Arvinas Operations, Inc., priority 2021, dated 2024).
Where a name gives a salt, the structure may show the parent alone. Read-outs that look alike come from different tables or passages of the source.

Target: T1, BCL6 (Homo sapiens, UniProt P41182)
T1 construct: endogenous in cells; host or cells: T47D breast cancer epithelial cells
Assay: Immunofluorescence protocol for high content imaging of BCL6 (degradation) in T47D cells, 3 days compound treatment
Type: cell-based
Details: for Dmax: read-out: Mean Dmax (%)** category; for DC50: read-out: Mean DC50 (nM)* category
Outline: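 Read-out: high-content imaging of anti-BCL6 immunofluorescence (Alexa-488 secondary) with CellMask and Hoechst counterstains, 10×, 4 fields/well. Cells had 3 days of compound exposure at 37° C, 5% CO2, 11-point 3-fold series from a final top of 0.1 or 1 μM.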

[1] = T47D cells, 3 days compound treatment

Row | Compound | Dmax (T47D) | DC50 | DC50 [1] | Dmax [1]
1 | CNC(=O)COc1cc2cc(Nc3nc(N4CCC(O[C@H]5C[C@H](N6CCN(c7cc(C)c8c(c7)C(=O)N(C7CCC(=O)NC7=O)C8=O)CC6)C5)CC4)ncc3Cl)ccc2n(C(C)C)c1=O (stereo partly drawn) [Compound 378, 2-({6-[(5-chloro-2-{4-[(1r,3r)-3-{4-[2-(2,6-dioxopiperidin-3-yl)-7-methyl-1,3-dioxo-2,3-dihydro-1H-isoindol-5-yl]piperazin-1-yl}cyclobutoxy]piperidin-1-yl}pyrimidin-4-yl)amino]-2-oxo-1-(propan-2-yl)-1,2-dihydroquinolin-3-yl}oxy)-N-methylacetamide] | 50 to 70% | 10 to 50 nM | – | –
2 | CNC(=O)COc1cc2cc(Nc3nc(N4CCC(O[C@H]5C[C@H](N6CCN(c7ccc8c(c7)C(=O)N(C7CCC(=O)NC7=O)C8=O)[C@H](C)C6)C5)CC4)ncc3Cl)ccc2n(C(C)C)c1=O (stereo partly drawn) [Compound 387, 2-({6-[(5-chloro-2-{4-[(1r,3r)-3-[(3R)-4-[2-(2,6-dioxopiperidin-3-yl)-1,3-dioxo-2,3-dihydro-1H-isoindol-5-yl]-3-methylpiperazin-1-yl]cyclobutoxy]piperidin-1-yl}pyrimidin-4-yl)amino]-2-oxo-1-(propan-2-yl)-1,2-dihydroquinolin-3-yl}oxy)-N-methylacetamide] | 50 to 70% | < 10 nM | – | –
3 | CNC(=O)COc1cc2cc(Nc3nc(N4CCN(CC5CCC6(CC5)CN(c5ccc(F)c7c5CN(C5CCC(=O)NC5=O)C7=O)C6)CC4)ncc3Cl)ccc2n(C(C)C)c1=O (stereo not drawn) [Compound 316, 2-{[6-({5-chloro-2-[4-({2-[2-(2,6-dioxopiperidin-3-yl)-7-fluoro-1-oxo-2,3-dihydro-1H-isoindol-4-yl]-2-azaspiro[3.5]nonan-7-yl}methyl)piperazin-1-yl]pyrimidin-4-yl}amino)-2-oxo-1-(propan-2-yl)-1,2-dihydroquinolin-3-yl]oxy}-N-methylacetamide] | 50 to 70% | < 10 nM | – | –
4 | CNC(=O)COc1cc2cc(Nc3nc(N4CCC(O[C@H]5C[C@H](N6CCN(c7cc(OC)c8c(c7)C(=O)N(C7CCC(=O)NC7=O)C8=O)CC6)C5)CC4)ncc3Cl)ccc2n(C(C)C)c1=O (stereo partly drawn) [Compound 379, 2-({6-[(5-chloro-2-{4-[(1r,3r)-3-{4-[2-(2,6-dioxopiperidin-3-yl)-7-methoxy-1,3-dioxo-2,3-dihydro-1H-isoindol-5-yl]piperazin-1-yl}cyclobutoxy]piperidin-1-yl}pyrimidin-4-yl)amino]-2-oxo-1-(propan-2-yl)-1,2-dihydroquinolin-3-yl}oxy)-N-methylacetamide] | 50 to 70% | < 10 nM | – | –
5 | CNC(=O)COc1cc2cc(Nc3nc(N4CCC(O[C@H]5C[C@H](N6CCN(c7ccc8c(c7F)CN(C7CCC(=O)NC7=O)C8=O)CC6)C5)CC4)ncc3Cl)ccc2n(C(C)C)c1=O (stereo partly drawn) [Compound 164, 2-[[6-[[5-chloro-2-[4-[3-[4-[2-(2,6-dioxo-3-piperidyl)-4-fluoro-1-oxo-isoindolin-5-yl]piperazin-1-yl]cyclobutoxy]-1-piperidyl]pyrimidin-4-yl]amino]-1-isopropyl-2-oxo-3-quinolyl]oxy]-N-methyl-acetamide formate] | – | – | < 10 nM | ≥ 70%
6 | CNC(=O)COc1cc2cc(Nc3nc(N4CCC(CN5CCC6(CC5)CN(c5cc(F)c7c(c5)CN(C5CCC(=O)NC5=O)C7=O)C6)CC4)ncc3Cl)ccc2n(C(C)C)c1=O (stereo not drawn) [Compound 80, 2-{[6-({5-chloro-2-[4-({2-[2-(2,6-dioxopiperidin-3-yl)-7-fluoro-1-oxo-2,3-dihydro-1H-isoindol-5-yl]-2,7-diazaspiro[3.5]nonan-7-yl}methyl)piperidin-1-yl]pyrimidin-4-yl}amino)-2-oxo-1-(propan-2-yl)-1,2-dihydroquinolin-3-yl]oxy}-N-methylacetamide] | – | – | < 10 nM | 50 to 70%
